# Measurements from US11377442B2, “Small molecule agonists and antagonists of NR2F6 activity” (ZANDER THERAPEUTICS, INC., priority 2016, dated 2022).
# Where two headings read alike, the source gives them in different places.
# How the values were obtained:
# Type in all cases: cell-based
# NR2F6 LBD = molecular target: T1, NR2F6 LBD (Homo sapiens, UniProt P10588); experiment: NR2F6 LBD transient transfection; details: LBD
# T1 construct: expressed in transfected cells
# T1 sequence (P10588 165-393 limits assumed): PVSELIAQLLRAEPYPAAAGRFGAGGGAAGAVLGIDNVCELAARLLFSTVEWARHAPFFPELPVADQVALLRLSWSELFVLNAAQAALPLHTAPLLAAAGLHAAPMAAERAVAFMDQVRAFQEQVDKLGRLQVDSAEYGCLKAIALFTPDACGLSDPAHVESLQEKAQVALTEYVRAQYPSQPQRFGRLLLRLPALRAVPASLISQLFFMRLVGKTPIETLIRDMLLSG
# Summary of the method: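 LBD-transfected cells treated at 40, 10, 2 and 0.5 μM (4 replicates); cytotoxicity measured in parallel, normalized to DMSO (0%) and zero signal (100%). Higher concentrations excluded where signal loss reflected toxicity.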
# NR2F6 = molecular target: T2, NR2F6 (Homo sapiens, UniProt P10588); experiment: NR2F6 agonist screening, Firefly signal cmpd/DMSO
# T2 construct: expressed in transfected cells; also transient transfection
# T2 sequence (P10588 1-404): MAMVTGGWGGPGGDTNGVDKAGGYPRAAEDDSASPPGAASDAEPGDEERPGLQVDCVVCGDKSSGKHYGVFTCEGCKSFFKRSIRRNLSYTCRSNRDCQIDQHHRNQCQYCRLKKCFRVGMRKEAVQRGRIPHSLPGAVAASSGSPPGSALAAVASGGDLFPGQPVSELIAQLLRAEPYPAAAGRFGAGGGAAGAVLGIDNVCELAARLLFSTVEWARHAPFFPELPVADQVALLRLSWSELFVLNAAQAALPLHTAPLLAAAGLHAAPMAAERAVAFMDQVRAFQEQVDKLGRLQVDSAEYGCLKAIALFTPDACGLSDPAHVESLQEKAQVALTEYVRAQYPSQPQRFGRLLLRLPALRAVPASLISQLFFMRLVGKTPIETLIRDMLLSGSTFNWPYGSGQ
# Renilla = Renilla signal in NR2F6 agonist screening, cmpd/DMSO; details: Renilla, F4
# HEK293 pGL4 = experiment: Firefly_pGL signal, cmpd/DMSO (pGL4 control cells); details: Homo sapiens
# [1] = read-out: Renilla, F4, cmpd/DMSO (mean)
# [2] = 1% FBS, read-out: Renilla, F4, 1% FBS, cmpd/DMSO (mean)
# [3] = 10% FBS, read-out: Renilla, F4, 10% FBS, cmpd/DMSO (mean)
# [4] = HEK293, 0.5 uM, pGL4, read-out: Firefly pGL4, cmpd/DMSO (mean)
# [5] = HEK293, 2 uM, pGL4, read-out: Firefly pGL4, cmpd/DMSO (mean)
# [6] = HEK293, 10 uM, pGL4, read-out: Firefly pGL4, cmpd/DMSO (mean)
# [7] = HEK293, 40 uM, pGL4, read-out: Firefly pGL4, cmpd/DMSO (mean)
# [8] = HEK293, pGL4, 1% FBS, 0.5 uM, read-out: Firefly, pGL4, 1% FBS, cmpd/DMSO (mean)
# [9] = HEK293, pGL4, 1% FBS, 2 uM, read-out: Firefly, pGL4, 1% FBS, cmpd/DMSO (mean)
# [10] = HEK293, pGL4, 1% FBS, 10 uM, read-out: Firefly, pGL4, 1% FBS, cmpd/DMSO (mean)
# [11] = HEK293, pGL4, 1% FBS, 40 uM, read-out: Firefly, pGL4, 1% FBS, cmpd/DMSO (mean)
# [12] = HEK293, pGL4, 10% FBS, 0.5 uM, read-out: Firefly, pGL4, 10% FBS, cmpd/DMSO (mean)
# [13] = HEK293, pGL4, 10% FBS, 2 uM, read-out: Firefly, pGL4, 10% FBS, cmpd/DMSO (mean)
# [14] = HEK293, pGL4, 10% FBS, 10 uM, read-out: Firefly, pGL4, 10% FBS, cmpd/DMSO (mean)
# [15] = HEK293, pGL4, 10% FBS, 40 uM, read-out: Firefly, pGL4, 10% FBS, cmpd/DMSO (mean)
smiles,measurement,setting,value
O=S1(=O)C[C@H](NC2CCCC2)[C@@H](S(=O)(=O)c2ccc(F)cc2)C1 [Compound D114],"Firefly LBD, cmpd/DMSO (mean)",NR2F6 LBD; 0.5 uM,1.1
same,"Firefly LBD, cmpd/DMSO (mean)",NR2F6 LBD; 2 uM,1.3
same,"Firefly LBD, cmpd/DMSO (mean)",NR2F6 LBD; 10 uM,1.9
same,"Firefly LBD, cmpd/DMSO (mean)",NR2F6 LBD; 40 uM,2.2
same,"Firefly F4, cmpd/DMSO (mean)",NR2F6; 0.5 uM,1.6
same,"Firefly F4, cmpd/DMSO (mean)",NR2F6; 2 uM,1.6
same,"Firefly F4, cmpd/DMSO (mean)",NR2F6; 10 uM,2.4
same,"Firefly F4, cmpd/DMSO (mean)",NR2F6; 40 uM,3.6
same,"F4, Firefly/Renilla for S/B(F4) > 3","NR2F6; 10% FBS, 40 uM",2.1
same,"Firefly, F4/pGL4 for S/B(F4) > 3","NR2F6; 10% FBS, 40 uM",1.6
same,"Firefly, F4, 1% FBS, cmpd/DMSO (mean)",NR2F6; 0.5 uM,1.3
same,"Firefly, F4, 1% FBS, cmpd/DMSO (mean)",NR2F6; 2 uM,1.0
same,"Firefly, F4, 1% FBS, cmpd/DMSO (mean)",NR2F6; 10 uM,1.8
same,"Firefly, F4, 1% FBS, cmpd/DMSO (mean)",NR2F6; 40 uM,2.2
same,"Firefly, F4, 10% FBS, cmpd/DMSO (mean)","NR2F6; 10% FBS, 0.5 uM",1.2
same,"Firefly, F4, 10% FBS, cmpd/DMSO (mean)","NR2F6; 10% FBS, 2 uM",1.1
same,"Firefly, F4, 10% FBS, cmpd/DMSO (mean)","NR2F6; 10% FBS, 10 uM",1.7
same,"Firefly, F4, 10% FBS, cmpd/DMSO (mean)","NR2F6; 10% FBS, 40 uM",3.2
same,fold induction at 0.5 µM,Renilla; [1],1
same,fold induction at 2 µM,Renilla; [1],1.1
same,fold induction at 10 µM,Renilla; [1],1.2
same,fold induction at 40 µM,Renilla; [1],1.3
same,fold induction at 0.5 µM,Renilla; [2],1.1
same,fold induction at 2 µM,Renilla; [2],1.2
same,fold induction at 10 µM,Renilla; [2],1.7
same,fold induction at 40 µM,Renilla; [2],1.8
same,fold induction at 0.5 µM,Renilla; [3],0.9
same,fold induction at 2 µM,Renilla; [3],1
same,fold induction at 10 µM,Renilla; [3],1.1
same,fold induction at 40 µM,Renilla; [3],1.5
same,fold induction at 0.5 µM,HEK293 pGL4; [4],1.1
same,fold induction at 2 µM,HEK293 pGL4; [5],1.3
same,fold induction at 10 µM,HEK293 pGL4; [6],2
same,fold induction at 40 µM,HEK293 pGL4; [7],2
same,fold induction at 0.5 µM,HEK293 pGL4; [8],1.1
same,fold induction at 2 µM,HEK293 pGL4; [9],1.3
same,fold induction at 10 µM,HEK293 pGL4; [10],1.7
same,fold induction at 40 µM,HEK293 pGL4; [11],1.5
same,fold induction at 0.5 µM,HEK293 pGL4; [12],1.3
same,fold induction at 2 µM,HEK293 pGL4; [13],1.3
same,fold induction at 10 µM,HEK293 pGL4; [14],1.5
same,fold induction at 40 µM,HEK293 pGL4; [15],2
Cc1cc(S(=O)(=O)[C@H]2CS(=O)(=O)C[C@@H]2NCC2CCCO2)ccc1F (some centres unmarked) [Compound D115],"Firefly LBD, cmpd/DMSO (mean)",NR2F6 LBD; 0.5 uM,0.9
same,"Firefly LBD, cmpd/DMSO (mean)",NR2F6 LBD; 2 uM,0.9
same,"Firefly LBD, cmpd/DMSO (mean)",NR2F6 LBD; 10 uM,1.3
same,"Firefly LBD, cmpd/DMSO (mean)",NR2F6 LBD; 40 uM,2.2
same,"Firefly F4, cmpd/DMSO (mean)",NR2F6; 0.5 uM,1.0
same,"Firefly F4, cmpd/DMSO (mean)",NR2F6; 2 uM,1.1
same,"Firefly F4, cmpd/DMSO (mean)",NR2F6; 10 uM,1.4
same,"Firefly F4, cmpd/DMSO (mean)",NR2F6; 40 uM,2.2
same,"Firefly, F4, 1% FBS, cmpd/DMSO (mean)",NR2F6; 0.5 uM,1.0
same,"Firefly, F4, 1% FBS, cmpd/DMSO (mean)",NR2F6; 2 uM,0.8
same,"Firefly, F4, 1% FBS, cmpd/DMSO (mean)",NR2F6; 10 uM,1.1
same,"Firefly, F4, 1% FBS, cmpd/DMSO (mean)",NR2F6; 40 uM,1.8
same,"Firefly, F4, 10% FBS, cmpd/DMSO (mean)","NR2F6; 10% FBS, 0.5 uM",1.5
same,"Firefly, F4, 10% FBS, cmpd/DMSO (mean)","NR2F6; 10% FBS, 2 uM",1.3
same,"Firefly, F4, 10% FBS, cmpd/DMSO (mean)","NR2F6; 10% FBS, 10 uM",0.7
same,"Firefly, F4, 10% FBS, cmpd/DMSO (mean)","NR2F6; 10% FBS, 40 uM",1.3
same,fold induction at 0.5 µM,Renilla; [1],1
same,fold induction at 2 µM,Renilla; [1],1
same,fold induction at 10 µM,Renilla; [1],1
same,fold induction at 40 µM,Renilla; [1],1.1
same,fold induction at 0.5 µM,Renilla; [2],1.1
same,fold induction at 2 µM,Renilla; [2],1
same,fold induction at 10 µM,Renilla; [2],1.2
same,fold induction at 40 µM,Renilla; [2],1.5
same,fold induction at 0.5 µM,Renilla; [3],1
same,fold induction at 2 µM,Renilla; [3],1
same,fold induction at 10 µM,Renilla; [3],1.1
same,fold induction at 40 µM,Renilla; [3],1.3
same,fold induction at 0.5 µM,HEK293 pGL4; [4],1.2
same,fold induction at 2 µM,HEK293 pGL4; [5],1.2
same,fold induction at 10 µM,HEK293 pGL4; [6],1.3
same,fold induction at 40 µM,HEK293 pGL4; [7],2
same,fold induction at 0.5 µM,HEK293 pGL4; [8],1.1
same,fold induction at 2 µM,HEK293 pGL4; [9],1.2
same,fold induction at 10 µM,HEK293 pGL4; [10],1.2
same,fold induction at 40 µM,HEK293 pGL4; [11],1.6
same,fold induction at 0.5 µM,HEK293 pGL4; [12],1.2
same,fold induction at 2 µM,HEK293 pGL4; [13],1.2
same,fold induction at 10 µM,HEK293 pGL4; [14],1.6
same,fold induction at 40 µM,HEK293 pGL4; [15],2.1
CC(=O)N1CCN([C@H]2CS(=O)(=O)C[C@@H]2S(=O)(=O)c2ccc(F)c(C)c2)CC1 [Compound D116],"Firefly LBD, cmpd/DMSO (mean)",NR2F6 LBD; 0.5 uM,0.9
same,"Firefly LBD, cmpd/DMSO (mean)",NR2F6 LBD; 2 uM,1.2
same,"Firefly LBD, cmpd/DMSO (mean)",NR2F6 LBD; 10 uM,1.1
same,"Firefly LBD, cmpd/DMSO (mean)",NR2F6 LBD; 40 uM,1.2
same,"Firefly F4, cmpd/DMSO (mean)",NR2F6; 0.5 uM,1.5
same,"Firefly F4, cmpd/DMSO (mean)",NR2F6; 2 uM,1.0
same,"Firefly F4, cmpd/DMSO (mean)",NR2F6; 10 uM,1.4
same,"Firefly F4, cmpd/DMSO (mean)",NR2F6; 40 uM,1.2
same,"Firefly, F4, 1% FBS, cmpd/DMSO (mean)",NR2F6; 0.5 uM,1.2
same,"Firefly, F4, 1% FBS, cmpd/DMSO (mean)",NR2F6; 2 uM,0.9
same,"Firefly, F4, 1% FBS, cmpd/DMSO (mean)",NR2F6; 10 uM,0.9
same,"Firefly, F4, 1% FBS, cmpd/DMSO (mean)",NR2F6; 40 uM,1.1
same,"Firefly, F4, 10% FBS, cmpd/DMSO (mean)","NR2F6; 10% FBS, 0.5 uM",1.1
same,"Firefly, F4, 10% FBS, cmpd/DMSO (mean)","NR2F6; 10% FBS, 2 uM",1.4
same,"Firefly, F4, 10% FBS, cmpd/DMSO (mean)","NR2F6; 10% FBS, 10 uM",1.3
same,"Firefly, F4, 10% FBS, cmpd/DMSO (mean)","NR2F6; 10% FBS, 40 uM",0.8
same,fold induction at 0.5 µM,Renilla; [1],1
same,fold induction at 2 µM,Renilla; [1],1.1
same,fold induction at 10 µM,Renilla; [1],1.1
same,fold induction at 40 µM,Renilla; [1],1.1
same,fold induction at 0.5 µM,Renilla; [2],1
same,fold induction at 2 µM,Renilla; [2],1.1
same,fold induction at 10 µM,Renilla; [2],1
same,fold induction at 40 µM,Renilla; [2],1.2
same,fold induction at 0.5 µM,Renilla; [3],0.8
same,fold induction at 2 µM,Renilla; [3],0.9
same,fold induction at 10 µM,Renilla; [3],0.9
same,fold induction at 40 µM,Renilla; [3],1.2
same,fold induction at 0.5 µM,HEK293 pGL4; [4],1
same,fold induction at 2 µM,HEK293 pGL4; [5],1.2
same,fold induction at 10 µM,HEK293 pGL4; [6],1.1
same,fold induction at 40 µM,HEK293 pGL4; [7],1.4
same,fold induction at 0.5 µM,HEK293 pGL4; [8],1.6
same,fold induction at 2 µM,HEK293 pGL4; [9],1
same,fold induction at 10 µM,HEK293 pGL4; [10],1.7
same,fold induction at 40 µM,HEK293 pGL4; [11],1.4
same,fold induction at 0.5 µM,HEK293 pGL4; [12],1.1
same,fold induction at 2 µM,HEK293 pGL4; [13],1.1
same,fold induction at 10 µM,HEK293 pGL4; [14],1.4
same,fold induction at 40 µM,HEK293 pGL4; [15],1.5
